Entries after “also recorded” stand apart in the source; their conditions may differ.
Key:
[1] = tested on: animals with hyperoxia-induced ALI; details: animals treated with Bardoxolone; cited from earlier work
paraquat-treated rats = experiment: PQ-induced acute lung injury model (tracheal instillation of paraquat); assay type: in vivo, rat
Excerpt: The model of PQ-induced increase in lung edema formation described in Rumsey, W., et al., (Mutagenesis. 2017, 32(3):343-353) is incorporated by reference in its entirety. In support of this invention, ALI was stimulated by the tracheal instillation of PQ which damages mtDNA in lung cells and provokes a loss of epithelial/endothelial integrity and edema formation.
Age-matched male Lewis rats (250-400 g, Charles River Breeding Laboratories, Wilmington, Mass.) were allowed free access to food and water. Animals were administered NRF2 compound via tracheal instillation 24 hours prior to oxidative insult.
For studies using PQ (or N,N′-dimethyl-4,4′-[…], Sigma Aldrich, St Louis, Mo.) as the toxin, aliquots were prepared in sterile phosphate-buffered saline (PBS) and instilled directly to the trachea of the rat while under isoflurane anesthesia. Rats were anesthetized in a small acrylic induction box with 2-5% isoflurane gas. When surgical anesthesia was obtained (assessed by loss of the righting reflex followed by use of the pedal withdrawal reflex), the rat was removed from the box and placed supine on a head up, tilted platform. The trachea was illuminated and either PQ or vehicle (300 μl, doses identified in figure legends) was directly instilled into the trachea, anterior to the primary bifurcation at the carina, using a blunt-tipped needle. The animal was returned to a recovery cage, where the righting reflex was regained in 2-3 minutes.
To monitor changes in airway mechanics, rats were placed into individual plethysmograph chambers (BUXCO Electronics, Troy, N.Y.). Fresh air was supplied by bias flow pumps to the chambers. Baseline respiratory (Penh) values were collected prior to administration of PQ and on succeeding days after administration of the agent. An average Penh was calculated for a period of 5 min where enhanced pause (Penh=[(expiratory time/relaxation time)−1]×(peak expiratory flow/peak inspiratory flow)) and relaxation time is the amount of time required for 70% of the tidal volume to be expired.
For measurements of edema formation in the lungs, the tissue was excised and weighed gravimetrically. A portion was dried overnight in an oven at […]. and weighed for dry weight.
In some studies, bronchoalveolar lavage was performed to identify the immune cells infiltrating the lung in response to the toxicant. After the animals were euthanized (Fatal Plus, 100 mg/kg i.p.), the trachea was surgically exposed and a blunt-tipped needle was inserted into the trachea for administration of lavage fluid (5×5 ml Dulbecco's phosphate buffered saline, PBS). The lavage fluid was collected, placed on ice and centrifuged (3000 rpm×10 min, Beckman-Coulter, Danvers, Mass.). Supernatant was aspirated and frozen whereas the pellet was resuspended in 5 ml of PBS. An aliquot (100 μl) was centrifuged (300 rpm×5 min, cytospin, Thermo-Shandon, Waltham, Mass.) and a separate sample prepared as 1:5 dilution for total cell counts using a hemocytometer. Aliquots of cells were placed on slides and stained (Kwik-Diff-Quick, Thermo-Shandon, Waltham, Mass.) according to manufacturer's instructions. At least 200 cells were counted and percentages of different cell types were calculated (macrophages and neutrophils).
For extraction of either RNA or DNA, the tissue was added to lysis buffer (Kingfisher DNA or RNA extraction kit, Thermo Fisher Scientific, Waltham, Mass.) and the samples were processed according to the manufacturer's instructions. The nucleotide quantities were determined with respective Qubit kits (Thermo Fisher, Waltham, Mass.). For measurement of mtDNA copy number by quantitative real time PCR, nuclear and mitochondrial primer sets (1 pmol/μl), and 2× SYBR green master mix (Life Technologies, Waltham, Mass.) were added to 50 ng of DNA combined with water (total 20 ul). […]

mice exposed to ozone = experiment: Repeated ozone exposure, alveolar barrier breakdown (serum surfactant protein-D, mtDNA); assay type: in vivo, mouse; details: FIG. 6
Method: Mice were exposed to ozone (1.5 ppm) for 3 hrs, twice per week for 3 weeks. Compound 1 was administered for 5 days/week, with the first dose administered 1 hour prior to first ozone administration. Blood/serum was collected 2 hrs after the final ozone exposure. Surfactant protein-D was measured using a commercially available ELISA kit. All data represent mean+/−S.E.M.
For determination of mtDNA damage (21), 15 ng of DNA in long chain PCR buffer was coupled with appropriate long and short primers for murine tissues. The reaction mixture was essentially the same for both long and short runs with the exception that the [Mg++] was 1.2 and 1.1 mM, respectively. For mouse tissues, the following thermocycler conditions were utilized: 94° C.×2 min followed by 19 cycles at 94° C.×15 sec, 64° C.×30 sec, 68° C.×8 min and finished at 72° C.×7 min; 94° C.×2 min, 94° C.×15 sec, 60° C.×30 sec, 72° C.×45 sec, and finished at 72° C.×7 min for the long and short PCR, respectively. The long and short primer sequences for mouse;
For both species, the long and short PCR products were then diluted 1:10 with Tris EDTA buffer containing 5 μl/ml of Pico Green (Molecular Probes, Invitrogen, Carlsbad Calif.) and fluorescence was monitored (485 nm excitation/528 nm emission, Envision Perkin Elmer, Waltham, Mass.). The replicates for each sample were averaged, the long primer was subtracted from the short primer, and transformed into percent of control using normalization functions (GraphPad Prism v6.0, La Jolla, Calif.). The data were calculated to reflect an increase in damage by subtracting the long primer from the short primer, rather than the opposite which would show the reduction of signal.
Surfactant protein-D (SP-D) was measured using a commercially available kit (Mouse Quantikine SP-D, R&D Systems #MSFPDO, Minneapolis, Minn.). Absorbances were monitored at 450 and 540 nm using a microplate spectrophotometer (Powerwave, BioTek, Winooski, Vt.) with Gen5 software (version 2.03.Ink). […] Degradation or breakdown of alveolar barrier and leakage of water into the alveolar is measured by wet:dry ratio. […]

rats exposed to ozone [2] = experiment: Ozone-induced lung injury (1 ppm of ozone for 3 hours); assay type: in vivo, rat; details: 3 μmol/kg i.t. 24 hours prior to 1 ppm ozone for 3 hours, sacrificed four hrs later
Method: FIG. 4 depicts the effect of NRF2 activator Compound I on ozone-induced changes in lung wet to dry weight ratio (FIG. 4A) and relative mtDNA copy number (FIG. 4B). Rats were administered the NRF2 activator (3 μmol/kg i.t.) 24 hours prior to ozone exposure (1 ppm of ozone for 3 hours). Four hrs later the animals were sacrificed. All data represent means±S.E.M. (*, **, *** refer to p<0.05, 0.01 and 0.001, respectively).
Age-matched male Lewis rats (250-400 g, Charles River Breeding Laboratories, Wilmington, Mass.) were allowed free access to food and water. Animals were administered NRF2 compound via tracheal instillation 24 hours prior to oxidative insult. […]
In another study, rats were exposed to ozone (2.0 ppm) for a 3 hr period twice a week with a resting period of 2 days between treatments. […] Ozone was generated (Oxycycler ozonator (model# A84ZV, Biospherix Inc., Lacona, N.Y.) by passing room air through the ozonator at a rate of 50-75 cm^3/min, mixing it with filtered room air at a rate of 10 L/min, and flowing this sample into a Plexiglass chamber containing the rodents. Ozone, carbon dioxide and humidity levels in the chamber were constantly monitored (Ozone Monitor Model 450, Teledyne Advanced Pollution Instrumentation, Inc., Thousand Oaks, Calif.). The animals were euthanized as described above 24 hrs after the last exposure to ozone. See FIG. 4-5. […]

rats exposed to ozone [3] = experiment: Severe ozone exposure (faulty ventilation, ozone above intended 1 ppm): death and glutathione; assay type: in vivo, rat
Excerpt: FIG. 5 depicts the protection offered by NRF2 activator Compound I against ozone-induced death (FIG. 5A) and loss of glutathione (FIG. 5B). Due to an unknown faulty ventilation system, ozone in the chamber built up to levels (unable to quantify) above those normally used in other studies. The intended exposure was 1 ppm. For those animals that survived, tissue values of NRF2-related parameters were examined 24 hrs. after ozone exposure. In addition, animals exposed to ozone within the control group were combined. All data represent means±S.E.M. (*, **, *** refer to p<0.05, 0.01 and 0.001, respectively). […]
In another study, rats were exposed to ozone (2.0 ppm) for a 3 hr period twice a week with a resting period of 2 days between treatments. […] Ozone was generated (Oxycycler ozonator (model# A84ZV, Biospherix Inc., Lacona, N.Y.) by passing room air through the ozonator at a rate of 50-75 cm^3/min, mixing it with filtered room air at a rate of 10 L/min, and flowing this sample into a Plexiglass chamber containing the rodents. Ozone, carbon dioxide and humidity levels in the chamber were constantly monitored (Ozone Monitor Model 450, Teledyne Advanced Pollution Instrumentation, Inc., Thousand Oaks, Calif.). The animals were euthanized as described above 24 hrs after the last exposure to ozone. See FIG. 4-5.

[4] = tested on: murine model of PQ-induced ALI; details: treatment with DNasel; cited from earlier work
[5] = relative to the PQ treated vehicle control animals, FIG. 3

## CC1(C)CC[C@]2(C(=O)O)CC[C@]3(C)[C@H](C(=O)C=C4[C@@]5(C)C=C(C#N)C(=O)C(C)(C)[C@@H]5CC[C@]43C)[C@@H]2C1 [Bardoxolone]
[1]
  protection from hyperoxia-induced ALI: protected them from hyperoxia-induced ALI

## CC[C@@H]1CN(Cc2cc([C@H](CC(=O)O)c3ccc4c(nnn4CC)c3C)ccc2C)S(=O)(=O)c2cccnc2O1 [Compound I, (S)-3-(3-(((R)-4-ethyl-1,1-dioxido-3,4-dihydro-2H-pyrido[2,3-b][1,4,5]oxathiazepin-2-yl)methyl)-4-methylphenyl)-3-(1-ethyl-4-methyl-1H-benzo[d][1,2,3]triazol-5-yl)propanoic acid]
paraquat-treated rats; paraquat-treated rats, FIG. 2
  inflammatory immune cells in bronchoalveolar lavage fluid (macrophages and neutrophils): decreased numbers of immune cells in the bronchoalveolar lavage fluid; also recorded: reduction in inflammatory immune cells
paraquat-treated rats; rat lung, PQ-treated, FIG. 3B
  NQO1 activity (NRF2-mediated gene expression): stimulated an upregulation of NQO1 activity
paraquat-treated rats; rat lung, PQ-treated, FIG. 3C
  DNA oxidation (8-OHdG levels): attenuating the impact of PQ on DNA oxidation
paraquat-treated rats; rat lung, FIG. 3A
  PQ-mediated mtDNA damage (relative mtDNA copy number): blockade of mtDNA damage; also recorded: prevented
paraquat-treated rats; rats, Compound I suspension i.t. 24 hrs prior to PQ (0.05 mg/kg i.t.), FIG. 1A
  lung function, expressed as Penh: improves lung function
paraquat-treated rats; rats, Compound I suspension i.t. 24 hrs prior to PQ (0.05 mg/kg i.t.), FIG. 1B
  lung edema formation, lung wet:dry weight ratio: maintenance of the lung wet:dry ratio; also recorded: protecting against the PQ-induced increase in lung edema formation
paraquat-treated rats; [5]
  TXNRD1 gene expression: exception
  expression of other NRF2 genes (GCLC, HO-1, etc.): up-regulated
Mice exposed to ozone; mice, ozone 1.5 ppm 3 hrs twice per week for 3 weeks
  degradation or breakdown of the alveolar barrier: prevented; also recorded: protective effect
Mice exposed to ozone; mice, ozone 1.5 ppm 3 hrs twice per week for 3 weeks, dosing 5 days/week, serum 2 hrs after final ozone exposure
  surfactant D (serum surfactant protein-D), biomarker of epithelial/alveolar barrier integrity: dose dependently prevented
Mice exposed to ozone; repeated ozone exposures
  changes in mtDNA: dose dependently prevented
Rats exposed to ozone [2]; FIG. 4A
  ozone-induced edema formation (lung wet to dry weight ratio): protected
Rats exposed to ozone [2]; FIG. 4B
  ozone-induced mtDNA damage (relative mtDNA copy number): protected
Rats exposed to ozone [3]; severe ozone exposure, level unable to quantify (intended 1 ppm), FIG. 5A
  ozone-induced death (survival): protection; also recorded: survive the lethal insult
Rats exposed to ozone [3]; surviving animals, tissue 24 hrs after ozone exposure, FIG. 5B
  ozone-induced loss of glutathione: protection

B1: DNasel: DNasel, presumably targeting expulsed mtDNA (protein, UniProt P24855 23-282, looked up)
Deoxyribonuclease-1: LKIAAFNIQTFGETKMSNATLVSYIVQILSRYDIALVQEVRDSHLTAVGKLLDNLNQDAPDTYHYVVSEPLGRNSYKERYLFVYRPDQVSAVDSYYYDDGCEPCGNDTFNREPAIVRFFSRFTEVREFAIVPLHAAPGDAVAEIDALYDVYLDVQEKWGLEDVMLMGDFNAGCSYVRPSQWSSIRLWTSPTFQWLIPDSADTTATPTHCAYDRIVVAGMLLRGAVVPDSALPFNFQAAYGLSDQLAQAISDHYPVEVMLK
[4]
  PQ-induced lung injury and survival: Protection from PQ-induced lung injury and survival
